# Measured values published in paper PMC10637841, “Evaluation of Antioxidant and Anti-Inflammatory Activities, and Metabolite Profiling of Selected Medicinal Plants of Nepal” (Journal of Tropical Medicine, 2023).
# Where two headings read alike, the source gives them in different places.
# Tests used:
# [1] = system: human red blood cells (HRBC) membrane; assay: HRBC membrane stabilization (heat-induced hemolysis); assay type: cell-based; conditions: Erythrocyte, read-out: HRBC membrane stabilization IC50
# Method: (1) Erythrocyte Suspension. With few modifications, the erythrocyte suspension was prepared using the technique outlined by Pieroni et al.. Healthy human volunteers provided the blood sample, which was centrifuged for 10 minutes at 1500 rpm. The red blood cell (RBC) pallet was washed three times with PBS (pH 7.4) following centrifugation. The buffy coat and supernatant liquid were aspirated out following each wash. The RBCs were resuspended in PBS at a concentration of 20% (v/v). (2) Heat-Induced Hemolysis. The method explained by Gunathilake et al. was used to determine the heat-induced hemolysis with some modifications. […] Then, the mixture was incubated for 20 minutes at 54°C in the water bath with continuous shaking. The mixture was incubated and centrifuged at 2500 rpm for 3 minutes. By using a UV spectrophotometer, the absorbance of supernatant was measured at 540 nm. In the experiment, PBS will be used as blank.
# [2] = DPPH free radical scavenging activity; assay type: biochemical; conditions: ethanolic leaf extract 100-2000 μg/mL; mean ± SEM
# Source text: (§1) The antioxidant activity of twelve plant extracts was estimated by using various methods, including (2, 2-diphenyl-1-picrylhidrazyl) DPPH free radical scavenging activity, ferrous (Fe^2+) ion chelating agent, ferric (Fe^3+) ion reducing power, nitric oxide (NO^−) scavenging activity, hydroxyl radical scavenging activity, hydrogen peroxide scavenging activity, and total antioxidant activity.
# [3] = Hydroxyl radical scavenging activity; assay type: biochemical; conditions: ethanolic leaf extract 100-2000 μg/mL; mean ± SEM
# Source text: as §1
# [4] = Total antioxidant activity (phosphomolybdenum); assay type: biochemical; conditions: ethanolic leaf extract 100-2000 μg/mL; mean ± SEM
# Source text: as §1
# [5] = Ferrous (Fe2+) ion chelating activity; assay type: biochemical; conditions: ethanolic leaf extract 100-2000 μg/mL; mean ± SEM
# Source text: as §1
# [6] = Hydrogen peroxide scavenging activity; assay type: biochemical; conditions: ethanolic leaf extract 100-2000 μg/mL; mean ± SEM
# Source text: as §1
# [7] = Nitric oxide (NO) scavenging activity; assay type: biochemical; conditions: ethanolic leaf extract 100-2000 μg/mL; mean ± SEM
# Source text: as §1
# [8] = Ferric (Fe3+) ion reducing power; assay type: biochemical; conditions: ethanolic leaf extract 100-2000 μg/mL; mean ± SEM
# Method: as §1
# The ferric ion-reducing antioxidant power assay of twelve plant extracts was carried out. The activity was confirmed when the color of the solution was changed from yellow to green and Prussian blue based on the reduction property of extracts and standard, which was measured at 700 nm wavelength using a UV spectrophotometer. The absorbance value was increased with the increasing concentration of plant extract (Table 4).
# rats = system: rats; set-up: method as in PMID 32061742; conditions: rats, 25, 50, and 100 mg/kg; ref [7]; cited from earlier work
# [9] = ethanolic leaf extract 100-2000 μg/mL
structure (smiles),measurement,setting,value
"O=C(O)COC(=O)Cc1ccccc1Nc1c(Cl)cccc1Cl [Aceclofenac, aceclofenac]",IC50,[1]; [9],21.9 ± 2.34 µg/mL
O=C1O[C@H]([C@@H](O)CO)C(O)=C1O [Ascorbic acid],DPPH scavenging IC50,[2],4.54 ± 0.98 µg/mL
same,Hydroxyl radical scavenging IC50,[3],4.75 ± 0.43 µg/mL
same,Total antioxidant activity IC50,[4],2.87 ± 0.10 µg/mL
same,Ferrous ion chelating IC50,[5],3.68 ± 0.59 µg/mL
same,H2O2 scavenging IC50,[6],3.31 ± 0.58 µg/mL
same,Nitric oxide scavenging IC50,[7],3.91 ± 0.80 µg/mL
same,Ferric reducing IC50,[8],2.47 ± 0.40 µg/mL
"CC(=O)Oc1ccccc1C(=O)O [Aspirin, aspirin]",IC50,[1]; [9],21.3 ± 0.43 µg/mL
"COc1ccc(O)c(C(C)(C)C)c1 [BHA, Butylated Hydroxyl Annisole]",Nitric oxide scavenging IC50,[7],5.58 ± 0.68 µg/mL
same,Ferric reducing IC50,[8],3.02 ± 0.30 µg/mL
"Cc1cc(C(C)(C)C)c(O)c(C(C)(C)C)c1 [BHT, Butylated Hydroxyl Toulene]",DPPH scavenging IC50,[2],2.90 ± 0.51 µg/mL
same,Hydroxyl radical scavenging IC50,[3],2.90 ± 0.98 µg/mL
same,Ferrous ion chelating IC50,[5],2.81 ± 0.82 µg/mL
same,H2O2 scavenging IC50,[6],2.89 ± 0.32 µg/mL
"Cc1ccc(-c2ncc(Cl)cc2-c2ccc(S(C)(=O)=O)cc2)cn1 [Etoricoxib, etoricoxib]",IC50,[1]; [9],11 ± 1.65 µg/mL
"COc1ccc2c(c1)c(CC(=O)O)c(C)n2C(=O)c1ccc(Cl)cc1 [Indomethacin, indomethacin]",IC50,[1],7.14 ± 0.31 µg/mL
C=C1CC[C@@H]2[C@](C)(CO)[C@H](O)CC[C@@]2(C)[C@@H]1C/C=C1/C(=O)OC[C@H]1O [andrographolide],"Concentration of catalase, superoxide dismutase, and glutathione (antioxidant enzymes)",rats,increase
same,"Level of articular elastase, TNF-α, IL-6, CXC chemokine ligand 2, and myeloperoxidase",rats,decrease
